Data on one substance can be found in patent publication US20170298314A1, “NANO-DROPLET PLATE” (Research Foundation of the City University of New York, priority 2016, published 2017).

The assay concerns HEK 293 cells. As to the kind of experiment: Penetration of FAM-labeled cell permeable peptide into HEK 293 cells in alginate gel drops, CLSM imaging. The class given is cell-based, Human. The settings on record: 15 μg/mL, 5 mins incubation, 1% w/v alginate, 63× oil immersion lens. As to the method:
High resolution observation of reactions between peptides and cells. Not only should proteins and peptides diffuse through the gel, they should also be able to react with cells, for drug screening applications. […] Sodium alginate solution (1% w/v) was mixed with a HEK 293 cell suspension and used as a source solution for single dispensing on 750 μm diameter nDAP anvils using a single robotically controlled rod. The alginate was cured with 1% calcium chloride for 5 min. […] The holder was filled with medium and imaged using a confocal microscope (CLSM). After the cells were imaged, a 15 μg/mL solution of (Arg)9 was introduced using a syringe, displacing the medium. […] The holder enables observation of single cells at high resolution while permitting the exchange of solutions without interfering with the gel anchor on the nDAPs.

As for (Arg)9, the “penetration into HEK 293 cells through gel” value is “Two cells with cell permeable protein were clearly seen”.
